± gives the expanded uncertainty stated by the source.
Test: mn = molality of the nth substance listed, in mol/kg
Conditions: 101 kPa, Liquid, Capillary tube (Ostwald / Ubbelohde) method

## [Cl-].[Cl-].[Mg+2] [magnesium chloride] + O
303.15 K, m1 = 0.003022
  viscosity: 0.8039 ± 0.017 mPa·s
303.15 K, m1 = 0.004
  viscosity: 0.8323 ± 0.017 mPa·s
303.15 K, m1 = 0.005
  viscosity: 0.8483 ± 0.018 mPa·s
303.15 K, m1 = 0.007
  viscosity: 0.8693 ± 0.018 mPa·s
303.15 K, m1 = 0.007995
  viscosity: 0.8885 ± 0.018 mPa·s
303.15 K, m1 = 0.008994
  viscosity: 0.9112 ± 0.019 mPa·s
308.15 K, m1 = 0.003022
  viscosity: 0.7343 ± 0.015 mPa·s
308.15 K, m1 = 0.004
  viscosity: 0.7545 ± 0.016 mPa·s
308.15 K, m1 = 0.005
  viscosity: 0.7723 ± 0.016 mPa·s
308.15 K, m1 = 0.007
  viscosity: 0.7896 ± 0.017 mPa·s
308.15 K, m1 = 0.007995
  viscosity: 0.8071 ± 0.017 mPa·s
308.15 K, m1 = 0.008994
  viscosity: 0.8198 ± 0.017 mPa·s
313.15 K, m1 = 0.003022
  viscosity: 0.6675 ± 0.014 mPa·s
313.15 K, m1 = 0.004
  viscosity: 0.6865 ± 0.014 mPa·s
313.15 K, m1 = 0.005
  viscosity: 0.7031 ± 0.015 mPa·s
313.15 K, m1 = 0.007
  viscosity: 0.7195 ± 0.015 mPa·s
313.15 K, m1 = 0.007995
  viscosity: 0.7366 ± 0.015 mPa·s
313.15 K, m1 = 0.008994
  viscosity: 0.7601 ± 0.016 mPa·s
318.15 K, m1 = 0.003022
  viscosity: 0.6213 ± 0.013 mPa·s
318.15 K, m1 = 0.004
  viscosity: 0.6301 ± 0.013 mPa·s
318.15 K, m1 = 0.005
  viscosity: 0.6466 ± 0.013 mPa·s
318.15 K, m1 = 0.007
  viscosity: 0.6648 ± 0.014 mPa·s
318.15 K, m1 = 0.007995
  viscosity: 0.6804 ± 0.014 mPa·s
318.15 K, m1 = 0.008994
  viscosity: 0.6989 ± 0.015 mPa·s
323.15 K, m1 = 0.003022
  viscosity: 0.5775 ± 0.012 mPa·s
323.15 K, m1 = 0.004
  viscosity: 0.5975 ± 0.013 mPa·s
323.15 K, m1 = 0.005
  viscosity: 0.6196 ± 0.013 mPa·s
323.15 K, m1 = 0.007
  viscosity: 0.6244 ± 0.013 mPa·s
323.15 K, m1 = 0.007995
  viscosity: 0.6481 ± 0.013 mPa·s
323.15 K, m1 = 0.008994
  viscosity: 0.6697 ± 0.014 mPa·s

## O=[N+]([O-])[O-].O=[N+]([O-])[O-].[Mg+2] [magnesium nitrate] + O
303.15 K, m1 = 0.003029
  viscosity: 0.8036 ± 0.017 mPa·s
303.15 K, m1 = 0.004005
  viscosity: 0.8293 ± 0.017 mPa·s
303.15 K, m1 = 0.005059
  viscosity: 0.8454 ± 0.018 mPa·s
303.15 K, m1 = 0.007003
  viscosity: 0.8685 ± 0.018 mPa·s
303.15 K, m1 = 0.008141
  viscosity: 0.8903 ± 0.018 mPa·s
303.15 K, m1 = 0.009263
  viscosity: 0.9014 ± 0.019 mPa·s
308.15 K, m1 = 0.003029
  viscosity: 0.7327 ± 0.015 mPa·s
308.15 K, m1 = 0.004005
  viscosity: 0.751 ± 0.016 mPa·s
308.15 K, m1 = 0.005059
  viscosity: 0.7688 ± 0.016 mPa·s
308.15 K, m1 = 0.007003
  viscosity: 0.7895 ± 0.017 mPa·s
308.15 K, m1 = 0.008141
  viscosity: 0.8097 ± 0.017 mPa·s
308.15 K, m1 = 0.009263
  viscosity: 0.8156 ± 0.017 mPa·s
313.15 K, m1 = 0.003029
  viscosity: 0.6665 ± 0.014 mPa·s
313.15 K, m1 = 0.004005
  viscosity: 0.6847 ± 0.014 mPa·s
313.15 K, m1 = 0.005059
  viscosity: 0.7021 ± 0.015 mPa·s
313.15 K, m1 = 0.007003
  viscosity: 0.721 ± 0.015 mPa·s
313.15 K, m1 = 0.008141
  viscosity: 0.7356 ± 0.015 mPa·s
313.15 K, m1 = 0.009263
  viscosity: 0.7458 ± 0.016 mPa·s
318.15 K, m1 = 0.003029
  viscosity: 0.6195 ± 0.013 mPa·s
318.15 K, m1 = 0.004005
  viscosity: 0.6272 ± 0.013 mPa·s
318.15 K, m1 = 0.005059
  viscosity: 0.6449 ± 0.013 mPa·s
318.15 K, m1 = 0.007003
  viscosity: 0.6635 ± 0.014 mPa·s
318.15 K, m1 = 0.008141
  viscosity: 0.6813 ± 0.014 mPa·s
318.15 K, m1 = 0.009263
  viscosity: 0.6958 ± 0.015 mPa·s
323.15 K, m1 = 0.003029
  viscosity: 0.5575 ± 0.012 mPa·s
323.15 K, m1 = 0.004005
  viscosity: 0.5773 ± 0.012 mPa·s
323.15 K, m1 = 0.005059
  viscosity: 0.5927 ± 0.012 mPa·s
323.15 K, m1 = 0.007003
  viscosity: 0.6106 ± 0.013 mPa·s
323.15 K, m1 = 0.008141
  viscosity: 0.6176 ± 0.013 mPa·s
323.15 K, m1 = 0.009263
  viscosity: 0.6305 ± 0.013 mPa·s

## [Cl-].[K+] [potassium chloride] + O
303.15 K, m1 = 0.003209
  viscosity: 0.8063 ± 0.017 mPa·s
303.15 K, m1 = 0.003885
  viscosity: 0.8068 ± 0.017 mPa·s
303.15 K, m1 = 0.004985
  viscosity: 0.8076 ± 0.017 mPa·s
303.15 K, m1 = 0.006959
  viscosity: 0.8088 ± 0.017 mPa·s
303.15 K, m1 = 0.008075
  viscosity: 0.8094 ± 0.017 mPa·s
303.15 K, m1 = 0.009511
  viscosity: 0.8102 ± 0.017 mPa·s
308.15 K, m1 = 0.003209
  viscosity: 0.7279 ± 0.015 mPa·s
308.15 K, m1 = 0.003885
  viscosity: 0.7284 ± 0.015 mPa·s
308.15 K, m1 = 0.004985
  viscosity: 0.7292 ± 0.015 mPa·s
308.15 K, m1 = 0.006959
  viscosity: 0.7304 ± 0.015 mPa·s
308.15 K, m1 = 0.008075
  viscosity: 0.7286 ± 0.015 mPa·s
308.15 K, m1 = 0.009511
  viscosity: 0.7316 ± 0.015 mPa·s
313.15 K, m1 = 0.003209
  viscosity: 0.6616 ± 0.014 mPa·s
313.15 K, m1 = 0.003885
  viscosity: 0.6621 ± 0.014 mPa·s
313.15 K, m1 = 0.004985
  viscosity: 0.6629 ± 0.014 mPa·s
313.15 K, m1 = 0.006959
  viscosity: 0.6641 ± 0.014 mPa·s
313.15 K, m1 = 0.008075
  viscosity: 0.6647 ± 0.014 mPa·s
313.15 K, m1 = 0.009511
  viscosity: 0.6655 ± 0.014 mPa·s
318.15 K, m1 = 0.003209
  viscosity: 0.6045 ± 0.013 mPa·s
318.15 K, m1 = 0.003885
  viscosity: 0.6051 ± 0.013 mPa·s
318.15 K, m1 = 0.004985
  viscosity: 0.6059 ± 0.013 mPa·s
318.15 K, m1 = 0.006959
  viscosity: 0.6071 ± 0.013 mPa·s
318.15 K, m1 = 0.008075
  viscosity: 0.6077 ± 0.013 mPa·s
318.15 K, m1 = 0.009511
  viscosity: 0.6086 ± 0.013 mPa·s
323.15 K, m1 = 0.003209
  viscosity: 0.5552 ± 0.012 mPa·s
323.15 K, m1 = 0.003885
  viscosity: 0.5557 ± 0.012 mPa·s
323.15 K, m1 = 0.004985
  viscosity: 0.5566 ± 0.012 mPa·s
323.15 K, m1 = 0.006959
  viscosity: 0.5578 ± 0.012 mPa·s
323.15 K, m1 = 0.008075
  viscosity: 0.5584 ± 0.012 mPa·s
323.15 K, m1 = 0.009511
  viscosity: 0.5592 ± 0.012 mPa·s

## O=[N+]([O-])[O-].[K+] [potassium nitrate] + O
303.15 K, m1 = 0.003067
  viscosity: 0.8152 ± 0.017 mPa·s
303.15 K, m1 = 0.003997
  viscosity: 0.8175 ± 0.017 mPa·s
303.15 K, m1 = 0.005019
  viscosity: 0.819 ± 0.017 mPa·s
303.15 K, m1 = 0.006997
  viscosity: 0.8217 ± 0.017 mPa·s
303.15 K, m1 = 0.008615
  viscosity: 0.8244 ± 0.017 mPa·s
303.15 K, m1 = 0.01033
  viscosity: 0.8263 ± 0.017 mPa·s
308.15 K, m1 = 0.003067
  viscosity: 0.7365 ± 0.015 mPa·s
308.15 K, m1 = 0.003997
  viscosity: 0.7382 ± 0.015 mPa·s
308.15 K, m1 = 0.005019
  viscosity: 0.731 ± 0.015 mPa·s
308.15 K, m1 = 0.006997
  viscosity: 0.7433 ± 0.015 mPa·s
308.15 K, m1 = 0.008615
  viscosity: 0.7449 ± 0.015 mPa·s
308.15 K, m1 = 0.01033
  viscosity: 0.7472 ± 0.016 mPa·s
313.15 K, m1 = 0.003067
  viscosity: 0.6691 ± 0.014 mPa·s
313.15 K, m1 = 0.003997
  viscosity: 0.6705 ± 0.014 mPa·s
313.15 K, m1 = 0.005019
  viscosity: 0.6722 ± 0.014 mPa·s
313.15 K, m1 = 0.006997
  viscosity: 0.6752 ± 0.014 mPa·s
313.15 K, m1 = 0.008615
  viscosity: 0.6775 ± 0.014 mPa·s
313.15 K, m1 = 0.01033
  viscosity: 0.6782 ± 0.014 mPa·s
318.15 K, m1 = 0.003067
  viscosity: 0.6139 ± 0.013 mPa·s
318.15 K, m1 = 0.003997
  viscosity: 0.6157 ± 0.013 mPa·s
318.15 K, m1 = 0.005019
  viscosity: 0.6178 ± 0.013 mPa·s
318.15 K, m1 = 0.006997
  viscosity: 0.621 ± 0.013 mPa·s
318.15 K, m1 = 0.008615
  viscosity: 0.6231 ± 0.013 mPa·s
318.15 K, m1 = 0.01033
  viscosity: 0.6253 ± 0.013 mPa·s
323.15 K, m1 = 0.003067
  viscosity: 0.5658 ± 0.012 mPa·s
323.15 K, m1 = 0.003997
  viscosity: 0.568 ± 0.012 mPa·s
323.15 K, m1 = 0.005019
  viscosity: 0.5701 ± 0.012 mPa·s
323.15 K, m1 = 0.006997
  viscosity: 0.5737 ± 0.012 mPa·s
323.15 K, m1 = 0.008615
  viscosity: 0.5761 ± 0.012 mPa·s
323.15 K, m1 = 0.01033
  viscosity: 0.5785 ± 0.012 mPa·s

## CCCCCCCCCCCCOS(=O)(=O)[O-].[Na+] [sodium dodecyl sulfate] + O
303.15 K, m1 = 0.007
  viscosity: 0.8017 ± 0.017 mPa·s
303.15 K, m1 = 0.01
  viscosity: 0.8025 ± 0.017 mPa·s
308.15 K, m1 = 0.007
  viscosity: 0.7228 ± 0.015 mPa·s
308.15 K, m1 = 0.01
  viscosity: 0.7285 ± 0.015 mPa·s
313.15 K, m1 = 0.007
  viscosity: 0.6582 ± 0.014 mPa·s
313.15 K, m1 = 0.01
  viscosity: 0.6577 ± 0.014 mPa·s
318.15 K, m1 = 0.007
  viscosity: 0.6009 ± 0.013 mPa·s
318.15 K, m1 = 0.01
  viscosity: 0.6026 ± 0.013 mPa·s
323.15 K, m1 = 0.007
  viscosity: 0.5513 ± 0.012 mPa·s
323.15 K, m1 = 0.01
  viscosity: 0.5575 ± 0.012 mPa·s

From the NIST ThermoML archive (doi:10.1016/j.jct.2011.06.024)
